Tests used:
Format in all cases: functional, organism-based
[1] = tested on: Human immunodeficiency virus; experiment: Antiviral activity against Human immunodeficiency virus; details: Human immunodeficiency virus 1
Hepatitis B virus = experiment: Antiviral activity against Hepatitis B virus
[2] = tested on: Human immunodeficiency virus; experiment: Antiviral activity against Human immunodeficiency virus infected in MT4 cell incubated for 72 hrs by CPE based microscopic assay; details: Human immunodeficiency virus 1, MT4, 72 h

| EC50 [1] | EC50 (Hepatitis B virus) | EC50 [2] | Compound |
| --- | --- | --- | --- |
| 8.2 µM | 6 µM | – | Nc1ncnc2c1ncn2[C@@H]1CC[C@H](CO)O1 |
| 0.38 µM | 1.2 µM | – | Nc1ncnc2c1ncn2[C@@H]1C=C[C@H](CO)O1 |
| – | – | 0.001 µM | Cc1cn(C2CC(N=[N+]=[N-])C(CO[PH](=O)OC3CCC4(C)C(C=CC5C4CCC4(C)C(C(C)CCCC(C)C)CCC54)C3)O2)c(=O)[nH]c1=O (configuration not stated) |
| 3.4 µM | 20 µM | – | Nc1ncnc2c1ncn2[C@H]1O[C@@H](CO)[C@H](O)C1(F)F |
